US20240383869A1, “ARYLACETYL INHIBITORS OF TG2 AND USES THEREOF” (UNIVERSITY OF OTTAWA, priority 2021, published 2024)
Read-outs that look alike come from different tables or passages of the source.

Assays:
[1] = biological target: T1, hTG2 (Homo sapiens, UniProt P21980); assay: biochemical; conditions: for Ki: read-out: KI (converted); for kinact: read-out: kinact (converted); for kinact/KI: read-out: kinact/KI (converted)
T1 sequence (P21980 1-687): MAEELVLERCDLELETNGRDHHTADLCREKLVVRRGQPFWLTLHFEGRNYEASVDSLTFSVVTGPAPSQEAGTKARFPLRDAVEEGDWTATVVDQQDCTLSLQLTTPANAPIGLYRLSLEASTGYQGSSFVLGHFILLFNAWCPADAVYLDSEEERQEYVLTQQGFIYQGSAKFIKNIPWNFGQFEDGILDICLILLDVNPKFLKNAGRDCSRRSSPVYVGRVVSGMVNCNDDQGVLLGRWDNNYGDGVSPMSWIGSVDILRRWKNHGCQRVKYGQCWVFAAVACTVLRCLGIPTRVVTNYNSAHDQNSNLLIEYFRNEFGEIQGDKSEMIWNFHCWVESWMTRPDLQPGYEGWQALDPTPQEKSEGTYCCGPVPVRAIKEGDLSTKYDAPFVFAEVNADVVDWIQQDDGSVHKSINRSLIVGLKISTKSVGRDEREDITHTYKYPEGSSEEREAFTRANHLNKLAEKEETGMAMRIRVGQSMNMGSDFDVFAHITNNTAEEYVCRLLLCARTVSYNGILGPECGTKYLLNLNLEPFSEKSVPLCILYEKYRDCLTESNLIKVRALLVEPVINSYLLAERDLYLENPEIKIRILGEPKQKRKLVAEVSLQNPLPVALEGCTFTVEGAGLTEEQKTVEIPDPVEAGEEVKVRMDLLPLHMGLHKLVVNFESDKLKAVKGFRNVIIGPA
Method: The ability of the compounds to inhibit TG2 transamidase activity and the kinetics of TG2 inhibition were investigated using a colorimetric activity assay, as follows:
Colorimetric transamidase activity assay. The activities of hTG1, hTG2 and hTG6 were measured via a colorimetric assay using the chromogenic substrate Cbz-Glu(γ-p-nitrophenyl ester)Gly (AL5), as described (Leblanc, A. et al., “Kinetic studies of guinea pig liver transglutaminase reveal a general-base-catalyzed deacylation mechanism.” Biochemistry 2001, 40 (28), 8335-8342). Assays were conducted at 25° C. in 50 mM MOPS buffer (pH 6.95) containing 7.5 mM CaCl2. […] The substrate AL5 was prepared in as a stock solution in DMSO such that the final concentration of this co-solvent was constant at 2.5% v/v. Stock solutions of the inhibitors were made in water ranging in concentration from 100-500 μM. The reaction was initiated with the addition of enzyme, 0.10 μM hTG1, 0.25 μM hTG2 (4.6 mU/mL) or 0.32 μM hTG6. Formation of hydrolysis product, p-nitrophenolate (pNP), was monitored at 405 nm in a polystyrene 96-well microplate using a BioTek Synergy 4 plate reader. The observed first-order rate constants of inactivation (kobs) were determined via non-linear regression fit to a mono-exponential model (Eqn 1) of absorbance versus time curves. These rate constants (kobs) were in turn fit to a saturation kinetics model (Eqn 2), by non-linear regression, providing the kinetic parameters kinact and KI, as previously described by Stone and Hofsteenge (Stone, S. R. and Hofsteenge, J., “Specificity of activated human protein C.” Biochem. J. 1985, 230 (2), 497-502). […] Experiments were completed in triplicate at minimum.
Fitting of this time-dependent inactivation to a monoexponential equation gave first-order rate constants, kobs. […] In some cases, the kinetic data were fitted to a linear double reciprocal equation.

[2] = test system: SCC-13 cells; assay: ECS cell invasion through Matrigel (Transwell); format: cell-based; conditions: 0-100 μM inhibitor, 18 h, read-out: EC50 for inhibition of ECS invasion
Method: One well-known property of tumour-initiating cells associated with cancer metastasis is the enhanced ability to invade Matrigel (collagen). For example, it has been shown that epidermal cancer stem (ECS) cells invade Matrigel more efficiently than non-stem cancer cells, and that these properties are associated with enhanced tumour formation (Adhikary, G. et al., PLoS ONE 2013, 8, e84324. https://doi.org/10.1371/journal.pone.0084324). We have shown previously that ˜20 μM of NC9 and 3.9 μM of VA4 can reduce ECS cell invasion through Matrigel by ˜50% relative to vehicle-treated cells (Akbar, A. et al., J. Med. Chem. 2017, 60, 7910-7927. https://doi.org/10.1021/acs.jmedchem.7b01070; Fisher, M. L. et al., Oncotarget 2015, 6, 20525-20539. https://doi.org/10.18632/oncotarget.3890).
Materials and Methods for cell invasion data. To measure cell invasion, Matrigel (Corning, catalogue no. 354234) was diluted to 250 μg/mL and 120 μL was added to the upper chambers of a Transwell plate (Corning, no. 353097, 1-cm diameter, 8-μm pore size) and allowed to solidify. SCC-13 cells were suspended in spheroid medium (Fisher, M. L. et al., Cancer Res. 2016, 76, 7265-7275. https://doi.org/10.1158/0008-5472.can-16-2032; Adhikary, G. et al., Carcinogenesis 2015, 36, 800-810. https://doi.org/10.1093/carcin/bgv064) containing 1% foetal calf serum (FCS), and 20,000 cells were plated into each upper chamber atop the Matrigel. The bottom chamber contained spheroid medium supplemented with 10% FCS and 0-100 μM of inhibitor. After incubation for 18 h in a 37° C. incubator, cells in the top chamber were removed with a swab and cells on the lower surface of the membrane were fixed with 4% paraformaldehyde and the nuclei were stained with 4′,6-diamidino-2-phenylindole. Cell number was counted in multiple fields (n=4) using a fluorescence microscope, normalized with respect to the number counted in the presence of vehicle only, and expressed as mean±standard deviation.

[3] = fit to saturation kinetics model, 25° C., pH 6.95, 100 μM AL5
[4] = values determined using a double-reciprocal analysis

| SMILES | Ki [1, 3] | kinact [1, 3] | kinact/KI [1, 3] | EC50 [2] | Ki [1, 4] | kinact [1, 4] | kinact/KI [1, 4] |
| --- | --- | --- | --- | --- | --- | --- | --- |
| C=CC(=O)NCCCC[C@H](NC(=O)CCCc1ccccc1)C(=O)N1CCN(C(=O)c2cccc3ccccc23)CC1 [Inhibitor 69, (S)-N-(1-(4-(1-naphthoyl)piperazin-1-yl)-6-acrylamido-1-oxohexan-2-yl)-4-phenylbutanamide] | 5.3 ± 0.6 µM | 0.0035 s⁻¹ | 660 M⁻¹ s⁻¹ |  |  |  |  |
| C=CC(=O)NCCCC[C@H](NC(=O)Cc1ccc(F)cc1)C(=O)N1CCN(C(=O)c2cccc3ccccc23)CC1 [Inhibitor 70, (S)-N-(6-(4-(1-naphthoyl)piperazin-1-yl)-5-(2-(4-fluorophenyl)acetamido)-6-oxohexyl)acrylamide] | 4.2 ± 0.9 µM | 0.00817 s⁻¹ | 1980 M⁻¹ s⁻¹ |  |  |  |  |
| C=CC(=O)NCCCC[C@H](NC(=O)Cc1cccc(F)c1)C(=O)N1CCN(C(=O)c2cccc3ccccc23)CC1 [Inhibitor 71, (S)-N-(6-(4-(1-naphthoyl)piperazin-1-yl)-5-(2-(3-fluorophenyl)acetamido)-6-oxohexyl)acrylamide] | 4.9 ± 0.5 µM | 0.0125 s⁻¹ | 2580 M⁻¹ s⁻¹ |  |  |  |  |
| C=CC(=O)NCCCC[C@H](NC(=O)Cc1cccc(Cl)c1)C(=O)N1CCN(C(=O)c2cccc3ccccc23)CC1 [Inhibitor 73, (S)-N-(6-(4-(1-naphthoyl)piperazin-1-yl)-5-(2-(3-chlorophenyl)acetamido)-6-oxohexyl)acrylamide] | 1 ± 0.5 µM | 0.005 s⁻¹ | 4830 M⁻¹ s⁻¹ |  |  |  |  |
| C=CC(=O)NCCCC[C@H](NC(=O)Cc1ccccc1OC)C(=O)N1CCN(C(=O)c2cccc3ccccc23)CC1 [Inhibitor 75, (S)-N-(6-(4-(1-naphthoyl)piperazin-1-yl)-5-(2-(2-methoxyphenyl)acetamido)-6-oxohexyl)acrylamide] | 4.6 ± 2.9 µM | 0.0233 s⁻¹ | 4980 M⁻¹ s⁻¹ |  |  |  |  |
| C=CC(=O)NCCCC[C@H](NC(=O)Cc1ccccc1Cl)C(=O)N1CCN(C(=O)c2cccc3ccccc23)CC1 [Inhibitor 76, (S)-N-(6-(4-(1-naphthoyl)piperazin-1-yl)-5-(2-(2-chlorophenyl)acetamido)-6-oxohexyl)acrylamide] | 18 ± 6.9 µM | 0.0883 s⁻¹ | 4920 M⁻¹ s⁻¹ | 92 ± 2 µM |  |  |  |
| C=CC(=O)NCCCC[C@H](NC(=O)Cc1ccccc1Br)C(=O)N1CCN(C(=O)c2cccc3ccccc23)CC1 [Inhibitor 77, (S)-N-(6-(4-(1-naphthoyl)piperazin-1-yl)-5-(2-(2-bromophenyl)acetamido)-6-oxohexyl)acrylamide] | 9.8 ± 1.5 µM | 0.0517 s⁻¹ | 5170 M⁻¹ s⁻¹ | 94 ± 2 µM |  |  |  |
| C=CC(=O)NCCCC[C@H](NC(=O)Cc1cccc(Cl)c1Cl)C(=O)N1CCN(C(=O)c2cccc3ccccc23)CC1 [Inhibitor 78, (S)-N-(6-(4-(1-naphthoyl)piperazin-1-yl)-5-(2-(2,3-dichlorophenyl)acetamido)-6-oxohexyl)acrylamide] | 2.7 ± 2.8 µM | 0.00767 s⁻¹ | 2830 M⁻¹ s⁻¹ |  |  |  |  |
| C=CC(=O)NCCCC[C@H](NC(=O)Cc1ccc(Cl)c(Cl)c1)C(=O)N1CCN(C(=O)c2cccc3ccccc23)CC1 [Inhibitor 79, (S)-N-(6-(4-(1-naphthoyl)piperazin-1-yl)-5-(2-(3,4-dichlorophenyl)acetamido)-6-oxohexyl)acrylamide] | 0.58 ± 0.3 µM | 0.00133 s⁻¹ | 2180 M⁻¹ s⁻¹ |  |  |  |  |
| C=CC(=O)NCCCC[C@H](NC(=O)Cc1ccc(F)cc1F)C(=O)N1CCN(C(=O)c2cccc3ccccc23)CC1 [Inhibitor 80, (S)-N-(6-(4-(1-naphthoyl)piperazin-1-yl)-5-(2-(2,4-difluorophenyl)acetamido)-6-oxohexyl)acrylamide] | 2.8 ± 0.9 µM | 0.0103 s⁻¹ | 3730 M⁻¹ s⁻¹ |  |  |  |  |
| C=CC(=O)NCCCC[C@H](NC(=O)Cc1ccccc1C(F)(F)F)C(=O)N1CCN(C(=O)c2cccc3ccccc23)CC1 [Inhibitor 81, (S)-N-(6-(4-(1-naphthoyl)piperazin-1-yl)-5-(2-(2-trifluoromethylphenyl)acetamido)-6-oxohexyl)acrylamide] | 10.1 ± 3.1 µM | 0.0167 s⁻¹ | 1670 M⁻¹ s⁻¹ |  |  |  |  |
| C=CC(=O)NCCCC[C@H](NS(=O)(=O)Cc1ccccc1)C(=O)N1CCN(C(=O)c2cccc3ccccc23)CC1 [Inhibitor 88] | 46.7 ± 10.2 µM | 0.00883 s⁻¹ | 190 M⁻¹ s⁻¹ |  |  |  |  |
| C=CC(=O)NCCCC[C@H](NS(=O)(=O)c1ccccc1)C(=O)N1CCN(C(=O)c2cccc3ccccc23)CC1 [Inhibitor 89, (S)-N-(6-(4-(1-naphthoyl)piperazin-1-yl)-6-oxo-5-(phenylsulfonamido)hexyl)acrylamide] |  |  |  |  | 88.8 ± 6.7 µM | 0.0105 s⁻¹ | 118 M⁻¹ s⁻¹ |
| C=CC(=O)NCCCC[C@H](NS(=O)(=O)CC)C(=O)N1CCN(C(=O)c2cccc3ccccc23)CC1 [Inhibitor 90, (S)-N-(6-(4-(1-naphthoyl)piperazin-1-yl)-5-(ethylsulfonamido)-6-oxohexyl)acrylamide] | 26.6 ± 1.1 µM | 0.0138 s⁻¹ | 518 M⁻¹ s⁻¹ |  |  |  |  |
| C=CC(=O)NCCCC[C@H](NS(C)(=O)=O)C(=O)N1CCN(C(=O)c2cccc3ccccc23)CC1 [Inhibitor 91, (S)-N-(6-(4-(1-naphthoyl)piperazin-1-yl)-5-(methylsulfonamido)-6-oxohexyl)acrylamide] | 25.3 ± 7.1 µM | 0.0095 s⁻¹ | 377 M⁻¹ s⁻¹ |  |  |  |  |
